According to PubChem BioAssay (NCI):
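96-well plates; 48 h exposure; 5 concentrations. Endpoints by linear interpolation between flanking doses. Not reached: highest tested concentration assigned. TGI denotes the concentration required for complete inhibition of growth.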

Columns and labels:
Assay in all cases: NCI-60 cell line screen, 48 h
[1] = tested on: M14 melanoma
[2] = tested on: SF-539 CNS
[3] = tested on: SK-MEL-2 melanoma
[4] = tested on: UO-31 renal
[5] = tested on: NCI-H522 lung
[6] = tested on: DMS 114 small cell lung
[7] = tested on: DMS 273 small cell lung
[8] = tested on: A549 NSCLC
[9] = tested on: HOP-62 NSCLC
[10] = tested on: EKVX NSCLC
[11] = tested on: K-562 leukemia
[12] = tested on: LXFL 529 NSCLC
[13] = tested on: HT29 colon
[14] = tested on: OVCAR-8 ovarian
[15] = tested on: SK-MEL-5 melanoma
[16] = tested on: U251 CNS
[17] = tested on: OVCAR-4 ovarian
[18] = tested on: SF-268 CNS
[19] = tested on: MOLT-4 leukemia
[20] = tested on: LOX IMVI melanoma
[21] = tested on: SW-620 colon
[22] = tested on: HCT-15 colon
[23] = tested on: KM12 colon
[24] = tested on: HCT-116 colon
[25] = tested on: NCI-H23 lung
[26] = tested on: NCI-H460 lung
[27] = tested on: SK-MEL-28 melanoma
[28] = tested on: RXF 393 renal
[29] = tested on: COLO 205 colon
[30] = tested on: CCRF-CEM leukemia
[31] = tested on: HL-60(TB) leukemia
[32] = tested on: OVCAR-3 ovarian
[33] = tested on: HOP-92 NSCLC
[34] = tested on: SNB-19 CNS
[35] = tested on: HCC-2998 colon
[36] = tested on: UACC-257 melanoma
[37] = tested on: MALME-3M melanoma
[38] = tested on: UACC-62 melanoma
[39] = tested on: 786-0 renal
[40] = tested on: A498 renal
[41] = tested on: XF 498 CNS
[42] = tested on: SNB-78 CNS
[43] = tested on: CAKI-1 renal
[44] = tested on: SNB-75 CNS
[45] = tested on: SK-OV-3 ovarian
[46] = tested on: TK-10 renal
[47] = tested on: SN12C renal
[48] = tested on: M19-MEL melanoma
[49] = tested on: IGROV1 ovarian
[50] = tested on: RPMI-8226 leukemia
[51] = tested on: DLD-1 colon
[52] = tested on: SF-295 CNS
[53] = tested on: OVCAR-5 ovarian
[54] = tested on: NCI-H226 lung
[55] = tested on: SR leukemia
[56] = tested on: ACHN renal

Measured: TGI

O=C1OC(O)c2cc3c(cc21)OCO3 (stereo unspecified)
not listed: [53] | [54] | [55] | [56]
> 100 µM: all other assays above

CCOC(=O)C1CCCCN1C(=O)OCc1ccccc1 (stereo unspecified)
not listed: [20] | [29] | [33] | [35] | [37] | [49] | [50]
> 100 µM: all other assays above
